Reference: patent US20120225062A1 (priority 2011, published 2012)
pEC50, pIC50: −log10 of the molar value.

Assays:
[1] = test system: KMS11 (human myeloma cell line); experiment: Cell Proliferation Assay (CellTiter-Glo, 3 days); format: cell-based; settings: KMS-11, 72 h, KMS11-luc cells
Outline: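 EC50 from CellTiter-Glo luminescence after 3-day, 37° C compound treatment of KMS11 cells seeded at 2000 per well in IMDM plus 10% FBS.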

Pim 1 = Pim 1 (Homo sapiens, UniProt P11309); experiment: Pim 1 AlphaScreen assay (high ATP)
Pim 2 = Pim 2 (Homo sapiens, UniProt Q9P1W9); experiment: Pim 2 AlphaScreen assay (high ATP)
Pim 3 = Pim 3 (Homo sapiens, UniProt Q86V86); experiment: Pim 3 AlphaScreen assay (high ATP)

Pim 2, sequence (Q9P1W9 whole entry): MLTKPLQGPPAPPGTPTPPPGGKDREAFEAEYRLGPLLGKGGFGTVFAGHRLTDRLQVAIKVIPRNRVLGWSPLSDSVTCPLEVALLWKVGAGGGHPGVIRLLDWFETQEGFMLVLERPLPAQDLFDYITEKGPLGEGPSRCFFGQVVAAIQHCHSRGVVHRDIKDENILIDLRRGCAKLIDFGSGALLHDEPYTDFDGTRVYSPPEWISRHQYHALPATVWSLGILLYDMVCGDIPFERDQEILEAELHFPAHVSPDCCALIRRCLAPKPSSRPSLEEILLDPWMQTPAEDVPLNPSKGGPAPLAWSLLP
Pim 1, sequence (P11309 whole entry): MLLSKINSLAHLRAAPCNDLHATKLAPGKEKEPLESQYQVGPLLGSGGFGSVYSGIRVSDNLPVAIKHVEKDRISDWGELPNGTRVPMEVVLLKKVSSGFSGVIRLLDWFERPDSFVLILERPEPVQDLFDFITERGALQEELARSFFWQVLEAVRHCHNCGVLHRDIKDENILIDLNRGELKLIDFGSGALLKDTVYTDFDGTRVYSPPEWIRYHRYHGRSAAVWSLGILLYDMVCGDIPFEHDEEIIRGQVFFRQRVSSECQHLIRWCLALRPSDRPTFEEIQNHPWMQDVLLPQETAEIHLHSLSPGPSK

| pEC50 [1] | pIC50 (Pim 1) | pIC50 (Pim 2) | pIC50 (Pim 3) | Structure (SMILES) |
| --- | --- | --- | --- | --- |
| 7.51 | 10.70 | 8.75 | 9.15 | CC(C)[C@@H]1C[C@H](N)C[C@H](c2ccncc2NC(=O)c2ccc(F)c(-c3c(F)cc(C4(O)CCC4)cc3F)n2)C1 [Example 133, N-(4-((1R,3S,5S)-3-amino-5-isopropylcyclohexyl)pyridin-3-yl)-6-(2,6-difluoro-4-(1-hydroxycyclobulyl)phenyl)-5-fluoropicolinamide] |
| 7.66 | 10.70 | 8.91 | 9.25 | C[C@H]1C[C@@H](c2ccncc2NC(=O)c2ccc(F)c(-c3c(F)cc(O[C@@H]4CCCOC4)cc3F)n2)C[C@@H](N)[C@@H]1O [Example 78, N-(4-((1R,3R,4R,5S)-3-amino-4-hydroxy-5-methylcyclohexyl)pyridin-3-yl)-6-(2,6-difluoro-4-((R)-tetrahydro-2H-pyran-3-yloxy)phenyl)-5-fluoropicolinamide] |
| 8.05 | 10.40 | 8.75 | 9.19 | C[C@H]1CN(c2ccncc2NC(=O)c2ccc(F)c(-c3c(F)cc([C@@H](O)CO)cc3F)n2)C[C@@H](N)[C@@H]1O [Example 234, N-(4-((3R,4R,5S)-3-amino-4-hydroxy-5-methylpiperidin-1-yl)pyridin-3-yl)-6-(4-((R)-1,2-dihydroxyethyl)-2,6-difluorophenyl)-5-fluoropicolinamide] |
| 7.03 | 9.85 | 8.20 | 8.11 | C[C@@H]1C[C@H](N)C[C@H](c2ccncc2NC(=O)c2ccc(F)c(-c3c(F)cc([S@@+](C)[O-])cc3F)n2)C1 [Example 228, N-(4-((1R,3S,5S)-3-amino-5-methylcyclohexyl)pyridin-3-yl)-6-(2,6-difluoro-4-((R)-methylsulfinyl)phenyl)-5-fluoropicolinamide] |
| 7.89 | 10.70 | 9.03 | 9.55 | Cc1cc(F)c(-c2nc(C(=O)Nc3cnccc3N3C[C@@H](N)[C@H](O)[C@@H](C)C3)ccc2F)c(F)c1 [Example 37, N-(4-((3R,4R,5S)-3-amino-4-hydroxy-5-methylpiperidin-1-yl)pyridin-3-yl)-6-(2,6-difluoro-4-methylphenyl)-5-fluoropicolinamide] |
| 7.26 | 10.40 | 8.50 | 8.87 | C[C@H]1C[C@@H](c2ccncc2NC(=O)c2ccc(F)c(-c3c(F)cc4c(c3F)OCC[C@@]4(C)O)n2)C[C@@H](N)[C@@H]1O [Example 238, N-(4-((1R,3R,4R,5S)-3-amino-4-hydroxy-5-methylcyclohexyl)pyridin-3-yl)-6-((R)-6,8-difluoro-4-hydroxy-4-methylchroman-7-yl)-5-fluoropicolinamide] |
| 8.00 | 10.52 | 8.82 | 9.35 | COCCOc1cc(F)c(-c2nc(C(=O)Nc3cnccc3N3C[C@@H](N)[C@H](O)[C@@H](C)C3)ccc2F)c(F)c1 [Example 22, N-(4-((3R,4R,5S)-3-amino-4-hydroxy-5-methylpiperidin-1-yl)pyridin-3-yl)-6-(2,6-difluoro-4-(2-methoxyethoxy)phenyl)-5-fluoropicolinamide] |
